# Results from patent publication US10206399B2, “Herbicidal composition comprising uracil compound as active ingredient” (Dongbu Farm Hannong Co., Ltd., priority 2012, dated 2019).
# Where two headings read alike, the source gives them in different places.
# Columns and labels:
# ryegrass = assay: Nonselective composition of 1 uracil compound and 2 herbicidally active compounds, plant mortality; assay type: in vivo
# From the text: (§1) X is % damage by uracil compound (a) of formula 1 at the rate of application of p kg/ha; Y is % damage by conventional herbicidal compound (b) at the rate of application of q kg/ha; and E is the expected damage caused by compounds (a) and (b) at a rate of application of p and q kg/ha.
# (§2) The expected activity for a given combination of two herbicides can be calculated using equation 1 above.
# wild amaranth = assay: as above; assay type: in vivo
# From the text: as §1, §2
# Monochoria vaginalis = assay: Paddy field farming herbicidal composition test, plant mortality; assay type: in vivo
# From the text: as §1, §2
# Ludwigia prostrate = assay: as above; assay type: in vivo
# From the text: as §1, §2
# rice plant = assay: Paddy field farming herbicidal composition test, plant mortality (crop)
# From the text: as §1, §2
# wheat = assay: Dry field farming herbicidal composition test, plant mortality (crop)
# From the text: as §1, §2
# Porippa islandica = assay: Dry field farming herbicidal composition test, plant mortality; assay type: in vivo
# From the text: as §1, §2
# Capsella bursapastoris = assay: as above; assay type: in vivo; conditions: in % (unit assumed)
# From the text: as §1, §2
# Lamium amplexicaule = assay: as above; assay type: in vivo; conditions: in % (unit assumed)
# From the text: as §1, §2
# Alopecurus aequalis = assay: as above; assay type: in vivo; conditions: in % (unit assumed)
# From the text: as §1, §2
# Xanthium spinosum = conditions: 16 g/ha; Xanthium spinosum
# From the text: as §1, §2
# Echinochloa crus = conditions: 16 g/ha; Echinochloa crus
# From the text: as §1, §2
# Aeschynomene indica = conditions: 16 g/ha; Aeschynomene indica
# From the text: as §1, §2
# Digitaria sanguinalis = conditions: 16 g/ha; Digitaria sanguinalis
# From the text: as §1, §2
# Abutilon theophrasti = conditions: 16 g/ha; Abutilon theophrasti
# From the text: as §1, §2
# [1] = 480 h, read-out: ryegrass mortality (measured value)
# [2] = Amaranthus caudatus, 480 h, read-out: Wild amaranth mortality (measured value)
compound,measurement,setting,value
C[C@H](NC(=O)[C@H](C)NC(=O)[C@@H](N)CCP(C)(=O)O)C(=O)O [Bilanafos],pest or weed control at 500 g/ha,"ryegrass; 480 h, 500 g ai/ha, read-out: ryegrass mortality (measured value)",30%
same,pest or weed control at 500 g/ha,"wild amaranth; Amaranthus caudatus, 480 h, 500 g ai/ha, read-out: Wild amaranth mortality (measured value)",15%
Nc1cc(Cl)nc(C(=O)O)c1Cl [Aminopyralid],ryegrass mortality (measured value),ryegrass; 250 g ai/ha,0
same,Wild amaranth mortality (measured value),wild amaranth; 250 g ai/ha,20
CS(=O)(=O)c1ccc(C(=O)C2C(=O)CCCC2=O)c(Cl)c1 [Sulcotrione],pest or weed control at 75 g/ha,ryegrass; [1],20%
same,pest or weed control at 75 g/ha,wild amaranth; [2],20%
COc1cc(OC)nc(NC(=O)NS(=O)(=O)c2c(C(=O)O)cnn2C)n1 [Pyrazosulfuron],Monochoria vaginalis mortality (measured value),Monochoria vaginalis; 2 g/ha,20
same,Monochoria vaginalis mortality (measured value),Monochoria vaginalis; 4 g/ha,40
same,Monochoria vaginalis mortality (measured value),Monochoria vaginalis; 5 g/ha,40
same,Monochoria vaginalis mortality (measured value),Monochoria vaginalis; 8 g/ha,63
same,Monochoria vaginalis mortality (measured value),Monochoria vaginalis; 10 g/ha,67
same,Ludwigia prostrate mortality (measured value),Ludwigia prostrate; 2 g/ha,15%
same,Ludwigia prostrate mortality (measured value),Ludwigia prostrate; 4 g/ha,35%
same,Ludwigia prostrate mortality (measured value),Ludwigia prostrate; 5 g/ha,45%
same,Ludwigia prostrate mortality (measured value),Ludwigia prostrate; 8 g/ha,65%
same,Ludwigia prostrate mortality (measured value),Ludwigia prostrate; 10 g/ha,62%
same,Rice plant mortality (measured value),rice plant; 2 g/ha,0
same,Rice plant mortality (measured value),rice plant; 4 g/ha,0
same,Rice plant mortality (measured value),rice plant; 5 g/ha,0
same,Rice plant mortality (measured value),rice plant; 8 g/ha,1
same,Rice plant mortality (measured value),rice plant; 10 g/ha,1
CC(C)Oc1cc(-n2nc(C(C)(C)C)oc2=O)c(Cl)cc1Cl [Oxadiazon],pest or weed control at 500 g/ha,ryegrass; [1],30%
same,pest or weed control at 500 g/ha,wild amaranth; [2],30%
CC(C)c1ccc(NC(=O)N(C)C)cc1 [Isoproturon],"Wheat mortality, measured value",wheat; 150 g/ha,0
same,"Wheat mortality, measured value",wheat; 300 g/ha,0
same,"Wheat mortality, measured value",wheat; 600 g/ha,1
same,"Porippa islandica mortality, measured value",Porippa islandica; 150 g/ha,10
same,"Porippa islandica mortality, measured value",Porippa islandica; 300 g/ha,26
same,"Porippa islandica mortality, measured value",Porippa islandica; 600 g/ha,53
same,"Capsella bursapastoris mortality, measured value",Capsella bursapastoris; 150 g/ha,11
same,"Capsella bursapastoris mortality, measured value",Capsella bursapastoris; 300 g/ha,29
same,"Capsella bursapastoris mortality, measured value",Capsella bursapastoris; 600 g/ha,63
same,"Lamium amplexicaule mortality, measured value",Lamium amplexicaule; 150 g/ha,12
same,"Lamium amplexicaule mortality, measured value",Lamium amplexicaule; 300 g/ha,25
same,"Lamium amplexicaule mortality, measured value",Lamium amplexicaule; 600 g/ha,49
same,"Alopecurus aequalis mortality, measured value",Alopecurus aequalis; 150 g/ha,15
same,"Alopecurus aequalis mortality, measured value",Alopecurus aequalis; 300 g/ha,32
same,"Alopecurus aequalis mortality, measured value",Alopecurus aequalis; 600 g/ha,64
O=C(Nc1ccc(F)cc1F)c1cccnc1Oc1cccc(C(F)(F)F)c1 [Diflufenican],"Wheat mortality, measured value",wheat; 37.5 g/ha,0
same,"Wheat mortality, measured value",wheat; 75 g/ha,0
same,"Wheat mortality, measured value",wheat; 150 g/ha,1
same,"Porippa islandica mortality, measured value",Porippa islandica; 37.5 g/ha,5
same,"Porippa islandica mortality, measured value",Porippa islandica; 75 g/ha,20
same,"Porippa islandica mortality, measured value",Porippa islandica; 150 g/ha,40
same,"Capsella bursapastoris mortality, measured value",Capsella bursapastoris; 37.5 g/ha,6
same,"Capsella bursapastoris mortality, measured value",Capsella bursapastoris; 75 g/ha,21
same,"Capsella bursapastoris mortality, measured value",Capsella bursapastoris; 150 g/ha,45
same,"Lamium amplexicaule mortality, measured value",Lamium amplexicaule; 37.5 g/ha,10
same,"Lamium amplexicaule mortality, measured value",Lamium amplexicaule; 75 g/ha,24
same,"Lamium amplexicaule mortality, measured value",Lamium amplexicaule; 150 g/ha,47
same,"Alopecurus aequalis mortality, measured value",Alopecurus aequalis; 37.5 g/ha,0
same,"Alopecurus aequalis mortality, measured value",Alopecurus aequalis; 75 g/ha,0
same,"Alopecurus aequalis mortality, measured value",Alopecurus aequalis; 150 g/ha,0
CCC(CC)Nc1c([N+](=O)[O-])cc(C)c(C)c1[N+](=O)[O-] [Pendimethalin],pest or weed control at 250 g/ha,ryegrass; [1],30%
same,pest or weed control at 250 g/ha,wild amaranth; [2],20%
COc1cc(OC)nc(NC(=O)NS(=O)(=O)Cc2ccccc2C(=O)O)n1 [Bensulfuron],Monochoria vaginalis mortality (measured value),Monochoria vaginalis; 10 g/ha,15
same,Monochoria vaginalis mortality (measured value),Monochoria vaginalis; 20 g/ha,35
same,Monochoria vaginalis mortality (measured value),Monochoria vaginalis; 40 g/ha,51
same,Ludwigia prostrate mortality (measured value),Ludwigia prostrate; 10 g/ha,20%
same,Ludwigia prostrate mortality (measured value),Ludwigia prostrate; 20 g/ha,40%
same,Ludwigia prostrate mortality (measured value),Ludwigia prostrate; 40 g/ha,55%
same,Rice plant mortality (measured value),rice plant; 10 g/ha,0
same,Rice plant mortality (measured value),rice plant; 20 g/ha,0
same,Rice plant mortality (measured value),rice plant; 40 g/ha,1
CC(C)N.O=C(O)CNCP(=O)(O)O [Glyphosate-IPA],ryegrass mortality (measured value),ryegrass; 300 g ai/ha,10
same,Wild amaranth mortality (measured value),wild amaranth; 300 g ai/ha,10
CCC(C)(CC)c1cc(NC(=O)c2c(OC)cccc2OC)on1 [Isoxaben],pest or weed control at 31 g/ha,ryegrass; [1],0%
same,pest or weed control at 31 g/ha,wild amaranth; [2],30%
COc1nc(C)nc(=NC(=O)NS(=O)(=O)c2ccccc2C(=O)O)[nH]1 [Metsulfuron],"Wheat mortality, measured value",wheat; 1 g/ha,0
same,"Wheat mortality, measured value",wheat; 2 g/ha,0
same,"Wheat mortality, measured value",wheat; 4 g/ha,0
same,"Porippa islandica mortality, measured value",Porippa islandica; 1 g/ha,5
same,"Porippa islandica mortality, measured value",Porippa islandica; 2 g/ha,20
same,"Porippa islandica mortality, measured value",Porippa islandica; 4 g/ha,45
same,"Capsella bursapastoris mortality, measured value",Capsella bursapastoris; 1 g/ha,7
same,"Capsella bursapastoris mortality, measured value",Capsella bursapastoris; 2 g/ha,24
same,"Capsella bursapastoris mortality, measured value",Capsella bursapastoris; 4 g/ha,48
same,"Lamium amplexicaule mortality, measured value",Lamium amplexicaule; 1 g/ha,11
same,"Lamium amplexicaule mortality, measured value",Lamium amplexicaule; 2 g/ha,29
same,"Lamium amplexicaule mortality, measured value",Lamium amplexicaule; 4 g/ha,57
same,"Alopecurus aequalis mortality, measured value",Alopecurus aequalis; 1 g/ha,0
same,"Alopecurus aequalis mortality, measured value",Alopecurus aequalis; 2 g/ha,0
same,"Alopecurus aequalis mortality, measured value",Alopecurus aequalis; 4 g/ha,0
O=C(Nc1ccc(F)cc1)c1cccc(Oc2cccc(C(F)(F)F)c2)n1 [Picolinafen],ryegrass mortality (measured value),ryegrass; 25 g ai/ha,0
same,Wild amaranth mortality (measured value),wild amaranth; 25 g ai/ha,25
CC1(C)CON(Cc2ccccc2Cl)C1=O [Clomazone],pest or weed control at 175 g/ha,ryegrass; [1],15%
same,pest or weed control at 175 g/ha,wild amaranth; [2],30%
COCc1cnc(C2=NC(C)(C(C)C)C(=O)N2)c(C(=O)O)c1 (centres unmarked) [Imazamox],pest or weed control at 8.3 g/ha,ryegrass; [1],30%
same,pest or weed control at 8.3 g/ha,wild amaranth; [2],20%
CCOCN(C(=O)CCl)c1c(C)cccc1CC [Acetochlor],pest or weed control at 375 g/ha,ryegrass; [1],30%
same,pest or weed control at 375 g/ha,wild amaranth; [2],10%
CCNc1nc(Cl)nc(NC(C)C)n1 [Atrazine],pest or weed control at 200 g/ha,ryegrass; [1],30%
same,pest or weed control at 200 g/ha,wild amaranth; [2],25%
C/C(=N\NC(=O)Nc1cc(F)cc(F)c1)c1ncccc1C(=O)O [Diflufenzopyr],pest or weed control at 12.5 g/ha,ryegrass; [1],20%
same,pest or weed control at 12.5 g/ha,wild amaranth; [2],20%
COC(=O)NS(=O)(=O)c1ccc(N)cc1 [Asulam],pest or weed control at 1250 g/ha,ryegrass; [1],25%
same,pest or weed control at 1250 g/ha,wild amaranth; [2],20%
O=C(O)c1nc(Cl)ccc1Cl [Clopyralid],pest or weed control at 125 g/ha,ryegrass; [1],0%
same,pest or weed control at 125 g/ha,wild amaranth; [2],10%
COC(=O)c1ccc(CNS(C)(=O)=O)cc1S(=O)(=O)NC(=O)Nc1nc(OC)cc(OC)n1 [Mesosulfuron],"Wheat mortality, measured value",wheat; 2 g/ha,0
same,"Wheat mortality, measured value",wheat; 4 g/ha,0
same,"Wheat mortality, measured value",wheat; 8 g/ha,1
same,"Porippa islandica mortality, measured value",Porippa islandica; 2 g/ha,12
same,"Porippa islandica mortality, measured value",Porippa islandica; 4 g/ha,27
same,"Porippa islandica mortality, measured value",Porippa islandica; 8 g/ha,61
same,"Capsella bursapastoris mortality, measured value",Capsella bursapastoris; 2 g/ha,10
same,"Capsella bursapastoris mortality, measured value",Capsella bursapastoris; 4 g/ha,30
same,"Capsella bursapastoris mortality, measured value",Capsella bursapastoris; 8 g/ha,59
same,"Lamium amplexicaule mortality, measured value",Lamium amplexicaule; 2 g/ha,13
same,"Lamium amplexicaule mortality, measured value",Lamium amplexicaule; 4 g/ha,26
same,"Lamium amplexicaule mortality, measured value",Lamium amplexicaule; 8 g/ha,55
same,"Alopecurus aequalis mortality, measured value",Alopecurus aequalis; 2 g/ha,15
same,"Alopecurus aequalis mortality, measured value",Alopecurus aequalis; 4 g/ha,32
same,"Alopecurus aequalis mortality, measured value",Alopecurus aequalis; 8 g/ha,64
C=CCOC(=O)C(C)(C)OC(=O)c1cc(-n2c(=O)cc(C(F)(F)F)n(C)c2=O)ccc1Cl [(Butafenacil],"plant mortality, measured value",Xanthium spinosum,54
same,"plant mortality, measured value",Echinochloa crus,5
same,"plant mortality, measured value",Aeschynomene indica,67
same,"plant mortality, measured value",Digitaria sanguinalis,5
same,"plant mortality, measured value",Abutilon theophrasti,51
CCOC1Oc2ccc(OS(C)(=O)=O)cc2C1(C)C (centres unmarked) [Ethofumesate],pest or weed control at 250 g/ha,ryegrass; [1],25%
same,pest or weed control at 250 g/ha,wild amaranth; [2],20%
CP(=O)(O)CCC(N)C(=O)O (centres unmarked) [Glufosinate-ammonium],pest or weed control at 150 g/ha,ryegrass; [1],10%
same,pest or weed control at 150 g/ha,wild amaranth; [2],20%
CC(Oc1ccc(Oc2ccc(Cl)cc2Cl)cc1)C(=O)O (centres unmarked) [Diclofop],pest or weed control at 175 g/ha,ryegrass; [1],30%
same,pest or weed control at 175 g/ha,wild amaranth; [2],0%
